From PubChem BioAssay AID2060886 (Molecular Pharmacology Branch, DTP, NCI, 2025)

System: 653999-131-R-J2-PDC complex spheroids, growth inhibition
Assay: Anticancer human tumor 653999-131-R-J2-PDC patient-derived lung adenocarcinoma cell line growth inhibition [RAS]
Settings: for IC50: curve of first compound; for viability, T/C: stronger effect = lower value
Outline: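 Multi-cell-type spheroids: tumor cells plus HUVEC endothelial cells and mesenchymal stem cells. RAS-pathway inhibitors were combined with targeted agents, each dosed in half-log steps down from clinical Cmax, or from 10 microM when Cmax was unknown.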

[1] = second compound 0.0316 µM, first compound 0.0316 µM
[2] = second compound 0.0316 µM, first compound 0.1 µM
[3] = second compound 0.0316 µM, first compound 0.316 µM
[4] = second compound 0.0316 µM, first compound 1 µM
[5] = second compound 0.1 µM, first compound 0.0316 µM
[6] = second compound 0.1 µM, first compound 0.1 µM
[7] = second compound 0.1 µM, first compound 0.316 µM
[8] = second compound 0.1 µM, first compound 1 µM
[9] = second compound 0.316 µM, first compound 0.0316 µM
[10] = second compound 0.316 µM, first compound 0.1 µM
[11] = second compound 0.316 µM, first compound 0.316 µM
[12] = second compound 0.316 µM, first compound 1 µM
[13] = second compound 1 µM, first compound 0.0316 µM
[14] = second compound 1 µM, first compound 0.1 µM
[15] = second compound 1 µM, first compound 0.316 µM
[16] = second compound 1 µM, first compound 1 µM
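Also: spheroids exposed to the agents for seven days before the readout.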

For CC(=O)OC12COC1CC(O)C1(C)C(=O)C(O)C3=C(C)C(OC(=O)C(O)C(NC(=O)OC(C)(C)C)c4ccccc4)CC(O)(C(OC(=O)c4ccccc4)C21)C3(C)C (centres undefined) + C#Cc1c(F)ccc2cc(O)cc(-c3ncc4c(N5CC6CCC(C5)N6)nc(OCC56CCCN5CC(F)C6)nc4c3F)c12, the IC50 (second compound 0.0316 µM) was 31.6 nM, the IC50 (second compound 0.1 µM) was less than 31.6 nM and the IC50 (second compound 0.316 µM) was less than 31.6 nM. The IC50 (second compound 1 µM) was less than 31.6 nM, the IC50 (second compound 3.16 µM) was less than 31.6 nM and the IC50 (second compound 10 µM) was less than 31.6 nM. For the same compound, the viability, T/C [1] was 51%, the viability, T/C [2] was 58% and the viability, T/C [3] was 47.7%. It also gave a viability, T/C [4] of 65.3%, a viability, T/C (second compound 0.0316 µM, first compound 3.16 µM) of 71.5% and a viability, T/C (second compound 0.0316 µM, first compound 10 µM) of 59.4%. For the same compound, the viability, T/C [5] was 50%, the viability, T/C [6] was 47% and the viability, T/C [7] was 50.4%. It also gave a viability, T/C [8] of 55.7%, a viability, T/C (second compound 0.1 µM, first compound 3.16 µM) of 57% and a viability, T/C (second compound 0.1 µM, first compound 10 µM) of 55.5%. It also gave a viability, T/C [9] of 43.4%, a viability, T/C [10] of 41.3% and a viability, T/C [11] of 42.5%. The viability, T/C [12] was 50.1%, the viability, T/C (second compound 0.316 µM, first compound 3.16 µM) was 47.4% and the viability, T/C (second compound 0.316 µM, first compound 10 µM) was 42.6%. It also gave a viability, T/C [13] of 25.7%, a viability, T/C [14] of 31.1% and a viability, T/C [15] of 32.2%. It also gave a viability, T/C [16] of 31.9%, a viability, T/C (second compound 1 µM, first compound 3.16 µM) of 28.8% and a viability, T/C (second compound 1 µM, first compound 10 µM) of 31%. For the same compound, the viability, T/C (second compound 3.16 µM, first compound 0.0316 µM) was 19.6%, the viability, T/C (second compound 3.16 µM, first compound 0.1 µM) was 19.2% and the viability, T/C (second compound 3.16 µM, first compound 0.316 µM) was 15.8%. The viability, T/C (second compound 3.16 µM, first compound 1 µM) was 16.2%, the viability, T/C (second compound 3.16 µM, first compound 3.16 µM) was 24.1% and the viability, T/C (second compound 3.16 µM, first compound 10 µM) was 18.5%. For the same compound, the viability, T/C (second compound 10 µM, first compound 0.0316 µM) was 12.6%, the viability, T/C (second compound 10 µM, first compound 0.1 µM) was 11.7% and the viability, T/C (second compound 10 µM, first compound 0.316 µM) was 12.4%. It also gave a viability, T/C (second compound 10 µM, first compound 1 µM) of 13.5%, a viability, T/C (second compound 10 µM, first compound 3.16 µM) of 17.4% and a viability, T/C (second compound 10 µM, first compound 10 µM) of 13.3%.

Work on CCN1CCN(Cc2ccc(Nc3ncc(F)c(-c4cc(F)c5nc(C)n(C(C)C)c5c4)n3)nc2)CC1 + C=CC(=O)N1CCN(c2nc(OCC3CCCN3C)nc3c(F)c(-c4nc(N)cc(C)c4C(F)(F)F)c(Cl)cc23)C(C)C1 yielded an IC50 (second compound 0.00316 µM) greater than 1000 nM, an IC50 (second compound 0.01 µM) greater than 1000 nM and an IC50 (second compound 0.0316 µM) greater than 1000 nM. For the same compound, the IC50 (second compound 0.1 µM) was greater than 1000 nM, the IC50 (second compound 0.316 µM) was greater than 1000 nM and the IC50 (second compound 1 µM) was greater than 1000 nM. It also gave a viability, T/C (second compound 0.00316 µM, first compound 0.00316 µM) of 90.4%, a viability, T/C (second compound 0.00316 µM, first compound 0.01 µM) of 79.5% and a viability, T/C (second compound 0.00316 µM, first compound 0.0316 µM) of 68.9%. It also gave a viability, T/C (second compound 0.00316 µM, first compound 0.1 µM) of 61.7%, a viability, T/C (second compound 0.00316 µM, first compound 0.316 µM) of 80% and a viability, T/C (second compound 0.00316 µM, first compound 1 µM) of 75.4%. It also gave a viability, T/C (second compound 0.01 µM, first compound 0.00316 µM) of 93.4%, a viability, T/C (second compound 0.01 µM, first compound 0.01 µM) of 84.1% and a viability, T/C (second compound 0.01 µM, first compound 0.0316 µM) of 69.3%. The viability, T/C (second compound 0.01 µM, first compound 0.1 µM) was 66.9%, the viability, T/C (second compound 0.01 µM, first compound 0.316 µM) was 67.7% and the viability, T/C (second compound 0.01 µM, first compound 1 µM) was 69.7%. It also gave a viability, T/C (second compound 0.0316 µM, first compound 0.00316 µM) of 106%, a viability, T/C (second compound 0.0316 µM, first compound 0.01 µM) of 87.1% and a viability, T/C [1] of 75.8%. It also gave a viability, T/C [2] of 65.3%, a viability, T/C [3] of 68.1% and a viability, T/C [4] of 81.7%. The viability, T/C (second compound 0.1 µM, first compound 0.00316 µM) was 111%, the viability, T/C (second compound 0.1 µM, first compound 0.01 µM) was 84% and the viability, T/C [5] was 67.6%. For the same compound, the viability, T/C [6] was 73.7%, the viability, T/C [7] was 63% and the viability, T/C [8] was 67.1%. It also gave a viability, T/C (second compound 0.316 µM, first compound 0.00316 µM) of 84.8%, a viability, T/C (second compound 0.316 µM, first compound 0.01 µM) of 98.6% and a viability, T/C [9] of 78.2%. For the same compound, the viability, T/C [10] was 69.4%, the viability, T/C [11] was 70.7% and the viability, T/C [12] was 70.5%. For the same compound, the viability, T/C (second compound 1 µM, first compound 0.00316 µM) was 94%, the viability, T/C (second compound 1 µM, first compound 0.01 µM) was 81.3% and the viability, T/C [13] was 63.4%. The viability, T/C [14] was 69.7%, the viability, T/C [15] was 77.6% and the viability, T/C [16] was 102%.
